Literature values, collected in patent US11503831B2, “Arthropoda repellent composition” (SanderStrothmann GmbH, priority 2019, dated 2022).

Conditions: in vivo

SMILES: CCN(CC)C(=O)c1cccc(C)c1 [N,N-diethyl toluamide, N,N′-diethyl toluamide]
- Share of topically applied dose absorbed by the skin: approximately 50%
- Time to peak plasma levels: 1 h
